Values quoted from earlier work in patent US20100167989A1, “ISOPROPOXYPHENYLMETHYL INHIBITORS OF SGLT2” (AUSPEX PHARMACEUTICALS, INC., priority 2008, published 2010).

Legend:
mice = conditions: orally administered
rats = conditions: orally administered

For CCOC(=O)OC[C@H]1O[C@@H](Oc2nn(C(C)C)c(C)c2Cc2ccc(OC(C)C)cc2)[C@H](O)[C@@H](O)[C@@H]1O [remogliflozin etabonate, 4-[(4-isopropoxyphenyl)-methyl]-1-isopropyl-5-methyl-1H-pyrazol-3-yl-D-glucopyranoside], the urinary glucose excretion (mice) is given as “increased urinary glucose excretion in a dose-dependent manner” and the urinary glucose excretion (rats) is given as “increased urinary glucose excretion in a dose-dependent manner”.
